Our source for the percent of control binding values is article PMC7026418, “The kinase polypharmacology landscape of clinical PARP inhibitors” (Scientific Reports, 2020).

Read-outs that look alike come from different tables or passages of the source.

Common to all, as to assay: biochemical
What all share (parameters): DiscoveRx KINOMEscan active site-directed competition binding; percent of control kinase bound to immobilised ligand

Test [1] concerns the target HIPK3 (Homo sapiens, UniProt Q9H422).
In test [2] the target is T1, OSR1 (Homo sapiens, UniProt O95747).
T1 construct: gene OXSR1

The target in test [3] is PIK3CA(Q546K) (Homo sapiens, UniProt P42336, Q546K).
The target in test [4] is PIK3CA(H1047Y) (Homo sapiens, UniProt P42336, H1047Y).
Test [5] addresses SLK (Homo sapiens, UniProt Q9H2G2).
Test [6] has as its target PIM1 (Homo sapiens, UniProt P11309).
Test [7] concerns the target ACVR2B (Homo sapiens, UniProt Q13705).
Test [8] has as its target T2, IKK-epsilon (Homo sapiens, UniProt Q14164).
T2 construct: gene IKBKE
T2 sequence (Q14164 1-716): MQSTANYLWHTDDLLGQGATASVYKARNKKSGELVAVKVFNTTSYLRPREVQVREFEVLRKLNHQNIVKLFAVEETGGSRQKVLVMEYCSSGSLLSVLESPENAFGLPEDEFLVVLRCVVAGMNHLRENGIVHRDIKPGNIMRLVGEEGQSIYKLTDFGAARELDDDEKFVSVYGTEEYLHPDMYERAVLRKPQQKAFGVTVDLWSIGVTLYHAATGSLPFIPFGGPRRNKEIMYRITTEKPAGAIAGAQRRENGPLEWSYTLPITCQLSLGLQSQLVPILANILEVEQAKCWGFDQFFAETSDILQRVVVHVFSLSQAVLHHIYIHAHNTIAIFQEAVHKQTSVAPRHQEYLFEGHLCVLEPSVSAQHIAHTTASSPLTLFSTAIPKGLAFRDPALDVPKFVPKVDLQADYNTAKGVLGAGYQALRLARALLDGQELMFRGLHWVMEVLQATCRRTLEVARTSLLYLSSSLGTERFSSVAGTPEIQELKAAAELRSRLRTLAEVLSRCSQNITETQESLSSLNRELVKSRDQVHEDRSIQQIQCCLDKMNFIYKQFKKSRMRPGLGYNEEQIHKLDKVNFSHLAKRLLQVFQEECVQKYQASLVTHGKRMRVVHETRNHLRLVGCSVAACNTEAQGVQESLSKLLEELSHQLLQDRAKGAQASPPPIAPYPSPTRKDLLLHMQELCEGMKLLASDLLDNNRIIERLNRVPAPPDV

Test [9] concerns the target T3, ABL1(Y253F)-phosphorylated (Homo sapiens, UniProt P00519, Y253F).
T3 construct: phosphorylated

The target in test [10] is T4, MLK2 (Homo sapiens, UniProt Q02779).
T4 construct: gene MAP3K10

Test [11] deals with T5, NEK2 (Homo sapiens, UniProt P51955).
T5 sequence (P51955 1-445): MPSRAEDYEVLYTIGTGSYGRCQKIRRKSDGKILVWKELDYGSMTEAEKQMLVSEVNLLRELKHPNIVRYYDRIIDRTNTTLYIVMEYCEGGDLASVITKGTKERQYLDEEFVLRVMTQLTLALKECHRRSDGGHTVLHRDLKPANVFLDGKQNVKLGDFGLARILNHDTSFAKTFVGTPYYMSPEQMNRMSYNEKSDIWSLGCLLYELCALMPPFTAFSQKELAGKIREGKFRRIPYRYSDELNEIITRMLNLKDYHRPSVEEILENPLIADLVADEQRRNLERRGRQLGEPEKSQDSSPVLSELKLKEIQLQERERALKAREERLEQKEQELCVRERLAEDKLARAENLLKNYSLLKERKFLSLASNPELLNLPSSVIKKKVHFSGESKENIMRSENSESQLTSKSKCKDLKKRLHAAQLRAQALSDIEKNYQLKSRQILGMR

The target in test [12] is T6, RSK2(Kin.Dom.2-C-terminal) (Homo sapiens, UniProt P51812).
T6 construct: gene RPS6KA3; Kin.Dom.2-C-terminal

Test [13] concerns the target TGFBR2 (Homo sapiens, UniProt P37173).
[14] abbreviates: read-out: Rucaparib / %Ctrl @ 10000nM, binding competition, % of control.
Where [15] appears, read: read-out: Talazoparib (BMN 673) / %Ctrl @ 10000nM.
Where [16] appears, read: read-out: Niraparib (MK-4827) / %Ctrl @ 10000nM.
The mark [17] stands for this setting: read-out: Olaparib / %Ctrl @ 10000nM.

TGFBR2, sequence (P37173 whole entry): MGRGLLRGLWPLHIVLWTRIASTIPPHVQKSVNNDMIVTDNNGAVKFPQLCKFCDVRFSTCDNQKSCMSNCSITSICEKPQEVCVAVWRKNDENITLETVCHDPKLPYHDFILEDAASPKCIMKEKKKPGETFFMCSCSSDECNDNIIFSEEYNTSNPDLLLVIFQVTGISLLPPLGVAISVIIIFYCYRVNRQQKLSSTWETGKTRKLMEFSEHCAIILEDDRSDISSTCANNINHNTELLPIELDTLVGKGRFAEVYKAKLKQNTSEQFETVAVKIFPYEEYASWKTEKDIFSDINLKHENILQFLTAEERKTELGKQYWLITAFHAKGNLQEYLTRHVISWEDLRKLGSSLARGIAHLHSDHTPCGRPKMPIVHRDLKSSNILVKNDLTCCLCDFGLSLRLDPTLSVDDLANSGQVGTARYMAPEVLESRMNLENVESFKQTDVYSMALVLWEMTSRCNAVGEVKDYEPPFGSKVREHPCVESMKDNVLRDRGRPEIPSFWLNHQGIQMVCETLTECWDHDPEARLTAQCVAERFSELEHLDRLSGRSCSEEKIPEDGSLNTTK
ACVR2B, sequence (Q13705 whole entry): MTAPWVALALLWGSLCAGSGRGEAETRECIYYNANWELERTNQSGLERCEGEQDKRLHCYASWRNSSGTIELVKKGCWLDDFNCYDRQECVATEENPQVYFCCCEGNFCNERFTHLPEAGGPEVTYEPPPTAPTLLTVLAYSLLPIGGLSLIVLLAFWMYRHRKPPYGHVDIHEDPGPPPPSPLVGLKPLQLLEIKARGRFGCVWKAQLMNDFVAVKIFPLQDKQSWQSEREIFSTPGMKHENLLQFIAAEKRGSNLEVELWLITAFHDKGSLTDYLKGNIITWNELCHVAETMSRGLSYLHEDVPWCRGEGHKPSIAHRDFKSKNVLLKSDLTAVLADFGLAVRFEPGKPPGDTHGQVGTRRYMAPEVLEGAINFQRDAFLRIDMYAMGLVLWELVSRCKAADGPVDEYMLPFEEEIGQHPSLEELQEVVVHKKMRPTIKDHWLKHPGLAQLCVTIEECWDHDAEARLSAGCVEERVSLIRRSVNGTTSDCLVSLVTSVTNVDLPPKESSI
T1 sequence (O95747 whole entry): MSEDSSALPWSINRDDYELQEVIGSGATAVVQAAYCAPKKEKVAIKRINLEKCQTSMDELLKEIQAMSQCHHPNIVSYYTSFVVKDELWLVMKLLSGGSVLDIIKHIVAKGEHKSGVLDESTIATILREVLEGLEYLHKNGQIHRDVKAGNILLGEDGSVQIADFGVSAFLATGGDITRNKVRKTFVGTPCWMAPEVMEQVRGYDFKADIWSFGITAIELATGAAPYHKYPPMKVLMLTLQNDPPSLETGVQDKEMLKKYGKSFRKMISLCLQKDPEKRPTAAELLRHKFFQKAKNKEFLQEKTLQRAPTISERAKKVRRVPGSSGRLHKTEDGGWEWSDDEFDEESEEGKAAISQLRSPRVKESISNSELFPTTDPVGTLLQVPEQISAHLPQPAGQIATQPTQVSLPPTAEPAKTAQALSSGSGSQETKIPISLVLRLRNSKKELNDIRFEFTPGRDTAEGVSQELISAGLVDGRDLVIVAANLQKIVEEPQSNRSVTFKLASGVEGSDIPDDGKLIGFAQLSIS
HIPK3, sequence (Q9H422 whole entry): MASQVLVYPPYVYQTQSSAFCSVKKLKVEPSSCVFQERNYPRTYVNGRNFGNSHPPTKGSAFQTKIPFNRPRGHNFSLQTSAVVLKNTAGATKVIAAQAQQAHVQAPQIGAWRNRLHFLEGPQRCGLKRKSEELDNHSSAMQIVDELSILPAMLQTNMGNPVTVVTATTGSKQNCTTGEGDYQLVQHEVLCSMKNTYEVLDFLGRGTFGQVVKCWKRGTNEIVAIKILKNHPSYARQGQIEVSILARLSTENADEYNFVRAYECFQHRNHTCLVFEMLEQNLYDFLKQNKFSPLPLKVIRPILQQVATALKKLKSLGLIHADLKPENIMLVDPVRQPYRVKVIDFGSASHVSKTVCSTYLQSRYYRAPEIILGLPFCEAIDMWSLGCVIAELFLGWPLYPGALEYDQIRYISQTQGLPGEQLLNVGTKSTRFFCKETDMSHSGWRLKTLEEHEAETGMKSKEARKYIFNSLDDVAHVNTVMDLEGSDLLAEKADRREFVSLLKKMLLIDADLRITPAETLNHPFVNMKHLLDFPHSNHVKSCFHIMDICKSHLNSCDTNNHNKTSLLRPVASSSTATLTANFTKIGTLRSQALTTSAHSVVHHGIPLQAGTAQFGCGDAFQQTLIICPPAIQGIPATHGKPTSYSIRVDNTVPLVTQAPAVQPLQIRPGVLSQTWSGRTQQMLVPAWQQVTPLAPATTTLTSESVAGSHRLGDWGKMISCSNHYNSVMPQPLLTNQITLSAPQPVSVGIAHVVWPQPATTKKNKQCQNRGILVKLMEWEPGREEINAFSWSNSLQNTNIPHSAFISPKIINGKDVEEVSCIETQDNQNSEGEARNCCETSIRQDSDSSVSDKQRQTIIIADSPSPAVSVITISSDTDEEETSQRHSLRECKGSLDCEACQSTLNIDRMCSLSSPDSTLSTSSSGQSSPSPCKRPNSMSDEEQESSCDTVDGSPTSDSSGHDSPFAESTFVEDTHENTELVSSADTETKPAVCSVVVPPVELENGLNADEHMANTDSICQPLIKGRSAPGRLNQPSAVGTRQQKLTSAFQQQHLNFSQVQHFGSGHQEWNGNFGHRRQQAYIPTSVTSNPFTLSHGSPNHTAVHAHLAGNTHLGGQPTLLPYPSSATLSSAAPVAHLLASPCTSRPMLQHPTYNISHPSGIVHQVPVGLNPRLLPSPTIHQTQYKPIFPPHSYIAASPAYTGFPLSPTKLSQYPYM
PIK3CA(H1047Y), sequence (P42336 whole entry H1047Y): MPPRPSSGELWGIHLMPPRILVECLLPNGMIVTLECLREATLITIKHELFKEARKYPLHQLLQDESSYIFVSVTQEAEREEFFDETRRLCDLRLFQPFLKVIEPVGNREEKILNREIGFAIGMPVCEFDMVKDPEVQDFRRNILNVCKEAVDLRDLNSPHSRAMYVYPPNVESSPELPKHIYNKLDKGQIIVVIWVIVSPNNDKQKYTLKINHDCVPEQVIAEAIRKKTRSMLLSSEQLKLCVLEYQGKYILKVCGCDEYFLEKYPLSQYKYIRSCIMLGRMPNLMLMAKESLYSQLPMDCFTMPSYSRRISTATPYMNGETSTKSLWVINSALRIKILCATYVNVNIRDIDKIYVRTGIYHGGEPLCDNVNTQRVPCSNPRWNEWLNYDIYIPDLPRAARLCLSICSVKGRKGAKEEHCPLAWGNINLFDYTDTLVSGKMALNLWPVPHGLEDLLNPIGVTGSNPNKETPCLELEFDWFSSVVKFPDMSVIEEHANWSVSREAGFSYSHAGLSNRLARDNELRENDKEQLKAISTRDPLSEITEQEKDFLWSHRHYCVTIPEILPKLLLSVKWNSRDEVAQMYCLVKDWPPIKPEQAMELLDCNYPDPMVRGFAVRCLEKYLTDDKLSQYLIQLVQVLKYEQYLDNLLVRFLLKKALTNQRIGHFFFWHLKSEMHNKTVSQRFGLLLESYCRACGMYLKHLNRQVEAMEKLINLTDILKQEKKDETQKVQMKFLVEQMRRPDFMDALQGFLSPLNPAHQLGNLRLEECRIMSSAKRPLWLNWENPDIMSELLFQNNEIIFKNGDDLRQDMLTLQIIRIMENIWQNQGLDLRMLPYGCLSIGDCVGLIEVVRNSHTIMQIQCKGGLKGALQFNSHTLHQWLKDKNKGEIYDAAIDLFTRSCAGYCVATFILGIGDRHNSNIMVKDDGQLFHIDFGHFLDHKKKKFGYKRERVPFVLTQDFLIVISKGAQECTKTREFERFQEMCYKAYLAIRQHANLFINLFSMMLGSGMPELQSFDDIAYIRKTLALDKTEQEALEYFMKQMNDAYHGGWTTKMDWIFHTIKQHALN
PIM1, sequence (P11309 whole entry): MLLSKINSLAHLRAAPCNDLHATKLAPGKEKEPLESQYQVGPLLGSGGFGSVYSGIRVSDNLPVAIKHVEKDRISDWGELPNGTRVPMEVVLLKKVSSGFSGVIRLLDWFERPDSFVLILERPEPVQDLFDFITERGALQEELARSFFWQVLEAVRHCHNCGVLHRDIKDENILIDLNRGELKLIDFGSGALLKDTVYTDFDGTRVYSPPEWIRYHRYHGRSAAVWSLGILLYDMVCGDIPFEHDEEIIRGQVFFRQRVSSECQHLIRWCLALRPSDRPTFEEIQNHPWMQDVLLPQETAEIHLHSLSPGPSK
T6 sequence (P51812 whole entry): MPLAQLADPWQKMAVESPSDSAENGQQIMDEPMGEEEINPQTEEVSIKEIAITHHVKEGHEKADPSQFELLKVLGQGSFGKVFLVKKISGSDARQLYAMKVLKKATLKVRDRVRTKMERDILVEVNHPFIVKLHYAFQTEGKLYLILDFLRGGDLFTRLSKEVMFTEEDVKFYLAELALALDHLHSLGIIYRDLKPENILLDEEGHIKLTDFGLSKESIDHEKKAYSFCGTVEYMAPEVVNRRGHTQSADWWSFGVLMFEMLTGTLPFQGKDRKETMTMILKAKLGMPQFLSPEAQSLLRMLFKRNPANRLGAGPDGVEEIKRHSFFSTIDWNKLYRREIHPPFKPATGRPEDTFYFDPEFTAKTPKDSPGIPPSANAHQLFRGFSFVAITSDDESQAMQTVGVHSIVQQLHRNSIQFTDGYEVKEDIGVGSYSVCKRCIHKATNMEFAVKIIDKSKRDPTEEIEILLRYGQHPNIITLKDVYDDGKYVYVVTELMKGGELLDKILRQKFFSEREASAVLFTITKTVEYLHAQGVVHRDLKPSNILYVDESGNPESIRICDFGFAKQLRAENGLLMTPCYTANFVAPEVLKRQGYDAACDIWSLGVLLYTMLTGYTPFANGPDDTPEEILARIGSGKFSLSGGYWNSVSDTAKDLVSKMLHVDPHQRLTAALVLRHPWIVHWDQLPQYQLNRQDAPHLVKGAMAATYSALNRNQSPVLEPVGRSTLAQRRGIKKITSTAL
PIK3CA(Q546K), sequence (P42336 whole entry Q546K): as the sequence (P42336 whole entry H1047Y) above, with Q546K, Y1047H counted along it

With `CNCc1ccc(-c2[nH]c3cc(F)cc4c3c2CCNC4=O)cc1` [Rucaparib], the percent of control binding at 10 µM in test [1] (setting [14]) stood at 18%; in test [2] (setting [14]), 71%; in test [3] (setting [14]), 93%; in [4] (setting [14]) it was 75%; in test [5] (setting [14]), 98%; in test [6] (setting [14]), 2.8%. Besides, the percent of control binding at 10 µM in test [7] (setting [14]) turned out to be 100%; in test [8] (setting [14]), 73%; in test [9] (setting [14]), 69%; in [10] (setting [14]), 63%; in test [11] (setting [14]) it was 87%; in test [12] (setting [14]), 64%. In addition, the percent of control binding at 10 µM in test [13] (setting [14]) was 96%.
Take `Cn1ncnc1[C@H]1c2n[nH]c(=O)c3cc(F)cc(c23)N[C@@H]1c1ccc(F)cc1` [Talazoparib]: the percent of control binding at 10 µM in test [1] (setting [15]) amounted to 55%; in [2] (setting [15]), 90%; in [3] (setting [15]) it was 100%; in test [4] (setting [15]) it was 89%; in test [5] (setting [15]) it was 90%; in test [6] (setting [15]), 95%. The percent of control binding at 10 µM in test [7] (setting [15]) worked out at 100%; in [8] (setting [15]), 90%; in test [9] (setting [15]) it was 100%; in test [10] (setting [15]), 70%; in [11] (setting [15]) it was 100%; in [12] (setting [15]) it was 100%. In addition, in test [13] (setting [15]), the percent of control binding at 10 µM came to 98%.
Take `NC(=O)c1cccc2cn(-c3ccc([C@@H]4CCCNC4)cc3)nc12` [Niraparib]: the percent of control binding at 10 µM in test [1] (setting [16]) came out at 2.5%; in [2] (setting [16]), 98%; in [3] (setting [16]) it was 100%; in test [4] (setting [16]), 66%; in test [5] (setting [16]), 92%; in test [6] (setting [16]) it was 18%. Besides, the percent of control binding at 10 µM amounted to 100% in test [7] (setting [16]); 76% in [8] (setting [16]); 57% in test [9] (setting [16]); 69% in test [10] (setting [16]); 98% in [11] (setting [16]); 100% in test [12] (setting [16]). Moreover, in [13] (setting [16]), the percent of control binding at 10 µM came out at 92%.
As to `O=C(c1cc(Cc2n[nH]c(=O)c3ccccc23)ccc1F)N1CCN(C(=O)C2CC2)CC1` [Olaparib], the percent of control binding at 10 µM in test [1] (setting [17]) was found to be 100%; in test [2] (setting [17]) it was 88%; in [3] (setting [17]) it was 90%; in [4] (setting [17]), 100%; in [5] (setting [17]), 100%; in [6] (setting [17]), 96%. Further, the percent of control binding at 10 µM in [7] (setting [17]) is 100%; in test [8] (setting [17]) it was 70%; in test [9] (setting [17]), 79%; in test [10] (setting [17]) it was 97%; in test [11] (setting [17]), 100%; in test [12] (setting [17]), 72%. Further, the percent of control binding at 10 µM in test [13] (setting [17]) amounted to 89%.
